Values joined by “and” are separate entries in the source; they are usually repeats but may differ in a detail not shown here. Equal values may be shown once. Read-outs that look alike come from different tables or passages of the source.
Tests used:
BRAF^V600E = BRAF^V600E (Homo sapiens, UniProt P15056, V600E); experiment: BRAF^V600E inhibitory assay (B-Raf (V600E) Kinase Assay); assay type: biochemical; settings: read-out: BRAF^V600E inhibition IC50 ± SEM
EGFR = biological target: T1, EGFR (Homo sapiens, UniProt P00533); experiment: EGFR inhibitory assay; assay type: biochemical; settings: for %inh: EGFR, unit not given
T1 construct: EGFR cytoplasmic domain (EGFR-CD, amino acids 645–1186); His6 (N); made in house; host or cells: Sf-9 insect cells (baculovirus)
T1 sequence (P00533 669-1210): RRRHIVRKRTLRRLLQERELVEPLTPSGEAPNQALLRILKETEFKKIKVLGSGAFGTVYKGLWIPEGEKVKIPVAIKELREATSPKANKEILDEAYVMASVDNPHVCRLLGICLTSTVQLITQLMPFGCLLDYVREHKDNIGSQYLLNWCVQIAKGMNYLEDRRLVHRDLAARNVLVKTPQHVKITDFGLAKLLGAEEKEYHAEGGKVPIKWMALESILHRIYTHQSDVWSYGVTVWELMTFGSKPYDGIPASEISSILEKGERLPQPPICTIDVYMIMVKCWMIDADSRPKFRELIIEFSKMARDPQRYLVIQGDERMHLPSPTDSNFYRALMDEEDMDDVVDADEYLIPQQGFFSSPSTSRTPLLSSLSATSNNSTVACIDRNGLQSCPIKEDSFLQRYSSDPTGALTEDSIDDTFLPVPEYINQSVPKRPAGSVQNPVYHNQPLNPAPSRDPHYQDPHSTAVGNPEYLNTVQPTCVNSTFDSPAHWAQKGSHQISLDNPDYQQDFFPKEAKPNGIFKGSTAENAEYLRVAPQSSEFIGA

NCI 60 cancer cell lines = experiment: NCI anticancer screening over a panel of 60 cancer cells, single concentration 10 µM; assay type: cell-based, human; settings: for inhibition at 10 µM: Homo sapiens, read-out: % Growth Inhibition (GI %)
Procedure, shortened: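 Run under the NCI Compound Evaluation Branch protocol, each compound was tested once at 10 µM. The panel comprised 60 cancer cell lines of diverse tissue origin, including leukemia, lung, colon, CNS, renal, ovarian, breast and prostate.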

[1] = tested on: leukemia (MOLT-4) cell line; experiment: MTT antiproliferative assay, MOLT-4; assay type: cell-based, human; settings: for IC50: read-out: Antiproliferative activity IC50 ± SEM, MOLT-4
Protocol: (§1) After 24 h of culture incubation and supernatants discarded.

[2] = tested on: lung cancer (HOP-92) cell line; experiment: MTT antiproliferative assay, HOP-92; assay type: cell-based, human
Protocol: […]. […] See Appendix B.
as §1

[3] = MTT cytotoxicity on normal cell line WI-38; settings: human, WI-38 normal cells, % viability
[4] = tested on: breast cancer (T47D) cell line; experiment: MTT antiproliferative assay, T-47D
Procedure, shortened: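 HOP-92, MOLT-4 and T-47D cells in DMEM/10% FBS/insulin exposed 24 h to serial 10-fold dilutions […]; MTT added 2–4 h, absorbance at 570 nm with 690 nm background subtraction. Percent viable cells gives IC50; GI50 is the average IC50 across the three lines.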

Sequence of BRAF^V600E (P15056 whole entry V600E): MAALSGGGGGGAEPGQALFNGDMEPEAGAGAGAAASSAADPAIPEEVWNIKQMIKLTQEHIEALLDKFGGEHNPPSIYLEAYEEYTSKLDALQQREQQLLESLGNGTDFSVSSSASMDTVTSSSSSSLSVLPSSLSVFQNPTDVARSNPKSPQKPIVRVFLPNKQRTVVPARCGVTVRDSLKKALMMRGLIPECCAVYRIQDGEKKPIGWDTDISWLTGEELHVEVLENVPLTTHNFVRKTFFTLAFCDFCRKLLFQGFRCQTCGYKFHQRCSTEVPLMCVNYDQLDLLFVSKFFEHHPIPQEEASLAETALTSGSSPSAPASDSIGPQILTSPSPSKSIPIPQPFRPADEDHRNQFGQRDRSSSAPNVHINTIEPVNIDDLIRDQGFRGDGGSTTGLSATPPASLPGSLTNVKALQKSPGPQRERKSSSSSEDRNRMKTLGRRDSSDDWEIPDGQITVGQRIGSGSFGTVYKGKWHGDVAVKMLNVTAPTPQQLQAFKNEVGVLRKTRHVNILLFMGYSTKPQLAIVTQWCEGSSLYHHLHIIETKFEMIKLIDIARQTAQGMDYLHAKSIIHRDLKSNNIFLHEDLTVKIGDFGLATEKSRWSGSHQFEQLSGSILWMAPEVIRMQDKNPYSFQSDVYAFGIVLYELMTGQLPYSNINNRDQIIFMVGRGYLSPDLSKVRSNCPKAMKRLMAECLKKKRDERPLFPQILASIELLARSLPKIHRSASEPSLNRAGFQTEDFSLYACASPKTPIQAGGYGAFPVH

C/C(=N\Nc1ccc(S(N)(=O)=O)cc1)c1cnn(-c2cc(=O)[nH]c3ccc(Br)cc23)c1C [Compound 4e, (E)-4-(2-(1-(1-(6-bromo-2-oxo-1,2-dihydroquinolin-4-yl)-5-methyl-1H-pyrazol-4-yl)ethylidene)hydrazineyl)benzenesulfonamide]
IC50 (BRAF^V600E): 0.068 ± 0.003 µM | %inh (EGFR; conc 0.01 (log -2)): 37% | %inh (EGFR; conc 0.1 (log -1)): 50.6% | %inh (EGFR; conc 1 (log 0)): 75.8% | %inh (EGFR; conc 10 (log 1)): 88.1% | %inh (EGFR; conc 100 (log 2)): 94.2% | IC50 (EGFR; read-out: EGFR inhibition IC50 ± SEM): 0.055 ± 0.002 µM | activity in NCI screening (mean GI%) (NCI 60 cancer cell lines; 10 µM, over the NCI cancer cell lines): remarkable activity over the most NCI cancer cell lines | inhibition at 10 µM (NCI 60 cancer cell lines; 786-0, Renal cancer 786-0, 10 μM): 14.1% | inhibition at 10 µM (NCI 60 cancer cell lines; A498, Renal cancer A498, 10 μM): < 5% | inhibition at 10 µM (NCI 60 cancer cell lines; A549, Non-small cell lung cancer A549/ATCC, 10 μM): < 5% | inhibition at 10 µM (NCI 60 cancer cell lines; ACHN, Renal cancer ACHN, 10 μM): 19% | inhibition at 10 µM (NCI 60 cancer cell lines; BT-549, Breast cancer BT-549, 10 μM): 62.3% | inhibition at 10 µM (NCI 60 cancer cell lines; CAKI-1, Renal cancer CAKI-1, 10 μM): 23.3% | inhibition at 10 µM (NCI 60 cancer cell lines; CCRF-CEM, Leukemia CCRF-CEM, 10 μM): 91.8% | inhibition at 10 µM (NCI 60 cancer cell lines; COLO 205, Colon cancer COLO 205, 10 μM): 14.5% | inhibition at 10 µM (NCI 60 cancer cell lines; DU-145, Prostate cancer DU-145, 10 μM): 22.1% | inhibition at 10 µM (NCI 60 cancer cell lines; EKVX, Non-small cell lung cancer EKVX, 10 μM): 27.9% | inhibition at 10 µM (NCI 60 cancer cell lines; HCC 2998, Colon cancer HCC-2998, 10 μM): 26.6% | inhibition at 10 µM (NCI 60 cancer cell lines; HCT-15, Colon cancer HCT-15, 10 μM): 8.8% | inhibition at 10 µM (NCI 60 cancer cell lines; HCT-116, Colon cancer HCT-116, 10 μM): 41.5% | inhibition at 10 µM (NCI 60 cancer cell lines; HL-60, Leukemia HL-60(TB), 10 μM): 15.2% | inhibition at 10 µM (NCI 60 cancer cell lines; HOP-62, Non-small cell lung cancer HOP-62, 10 μM): 36.6% | inhibition at 10 µM (NCI 60 cancer cell lines; HOP-92, Non-small cell lung cancer HOP-92, 10 μM): 102% | inhibition at 10 µM (NCI 60 cancer cell lines; HT-29, Colon cancer HT29, 10 μM): < 5% | inhibition at 10 µM (NCI 60 cancer cell lines; Hs-578T, Breast cancer HS 578T, 10 μM): 71.6% | inhibition at 10 µM (NCI 60 cancer cell lines; IGROV-1, Ovarian cancer IGROV1, 10 μM): 43% | inhibition at 10 µM (NCI 60 cancer cell lines; K562, Leukemia K-562, 10 μM): 65% | inhibition at 10 µM (NCI 60 cancer cell lines; KM12, Colon cancer KM12, 10 μM): 46.3% | inhibition at 10 µM (NCI 60 cancer cell lines; LOX IMVI, Melanoma LOX IMVI, 10 μM): 61.8% | inhibition at 10 µM (NCI 60 cancer cell lines; Leukemia SR, 10 μM): 95.9% | inhibition at 10 µM (NCI 60 cancer cell lines; MCF7, Breast cancer MCF7, 10 μM): 76.8% | inhibition at 10 µM (NCI 60 cancer cell lines; MDA-MB-231, Breast cancer MDA-MB-231/ATCC, 10 μM): 68.5% | inhibition at 10 µM (NCI 60 cancer cell lines; MDA-MB-435, Melanoma MDA-MB-435, 10 μM): 95.6% | inhibition at 10 µM (NCI 60 cancer cell lines; MDA-MB-468, Breast cancer MDA-MB-468, 10 μM): 111% | inhibition at 10 µM (NCI 60 cancer cell lines; MOLT-4, Leukemia MOLT-4, 10 μM): 81.5% | inhibition at 10 µM (NCI 60 cancer cell lines; Melanoma M14, 10 μM): 26.9% | inhibition at 10 µM (NCI 60 cancer cell lines; Melanoma MALM-3M, 10 μM): 78.3% | inhibition at 10 µM (NCI 60 cancer cell lines; NCI-H23, Non-small cell lung cancer NCI-H23, 10 μM): 30.1% | inhibition at 10 µM (NCI 60 cancer cell lines; NCI-H226, Non-small cell lung cancer NCI-H226, 10 μM): 37.7% | inhibition at 10 µM (NCI 60 cancer cell lines; NCI-H322M, Non-small cell lung cancer NCI-H322M, 10 μM): 22.3% | inhibition at 10 µM (NCI 60 cancer cell lines; NCI-H460, Non-small cell lung cancer NCI-H460, 10 μM): 22.1% | inhibition at 10 µM (NCI 60 cancer cell lines; NCI-H522, Non-small cell lung cancer NCI-H522, 10 μM): 94.9% | inhibition at 10 µM (NCI 60 cancer cell lines; NCI/ADR-RES, Ovarian cancer NCI/ADR-RES, 10 μM): 9.87% | inhibition at 10 µM (NCI 60 cancer cell lines; OVCAR-3, Ovarian cancer OVCAR-3, 10 μM): 43.8% | inhibition at 10 µM (NCI 60 cancer cell lines; OVCAR-4, Ovarian cancer OVCAR-4, 10 μM): 32.3% | inhibition at 10 µM (NCI 60 cancer cell lines; OVCAR-5, Ovarian cancer OVCAR-5, 10 μM): 18.6% | inhibition at 10 µM (NCI 60 cancer cell lines; OVCAR-8, Ovarian cancer OVCAR-8, 10 μM): 19.5% | inhibition at 10 µM (NCI 60 cancer cell lines; Prostate cancer PC-3, 10 μM): 41.6% | inhibition at 10 µM (NCI 60 cancer cell lines; RPMI-8226, Leukemia RPMI-8226, 10 μM): 25.7% | inhibition at 10 µM (NCI 60 cancer cell lines; RXF 393, Renal cancer RXF 393, 10 μM): 31.4% | inhibition at 10 µM (NCI 60 cancer cell lines; SF-268, CNS Cancer SF-268, 10 μM): 42.7% | inhibition at 10 µM (NCI 60 cancer cell lines; SF-295, CNS Cancer SF-295, 10 μM): 8.09% | inhibition at 10 µM (NCI 60 cancer cell lines; SF-539, CNS Cancer SF-539, 10 μM): 58.4% | inhibition at 10 µM (NCI 60 cancer cell lines; SK-MEL-2, Melanoma SK-MEL-2, 10 μM): 80% | inhibition at 10 µM (NCI 60 cancer cell lines; SK-MEL-5, Melanoma SK-MEL-5, 10 μM): 45% | inhibition at 10 µM (NCI 60 cancer cell lines; SK-MEL-28, Melanoma SK-MEL-28, 10 μM): 65.3% | inhibition at 10 µM (NCI 60 cancer cell lines; SK-OV-3, Ovarian cancer SK-OV-3, 10 μM): 30.8% | inhibition at 10 µM (NCI 60 cancer cell lines; SN12C, Renal cancer SN12C, 10 μM): 38.8% | inhibition at 10 µM (NCI 60 cancer cell lines; SNB-19, CNS Cancer SNB-19, 10 μM): 54% | inhibition at 10 µM (NCI 60 cancer cell lines; SNB-75, CNS Cancer SNB-75, 10 μM): 78% | inhibition at 10 µM (NCI 60 cancer cell lines; SW-620, Colon cancer SW-620, 10 μM): 24.3% | inhibition at 10 µM (NCI 60 cancer cell lines; T47D, Breast cancer T-47D, 10 μM): 82.5% | inhibition at 10 µM (NCI 60 cancer cell lines; TK-10, Renal cancer TK-10, 10 μM): < 5% | inhibition at 10 µM (NCI 60 cancer cell lines; U-251, CNS Cancer U251, 10 μM): 62.1% | inhibition at 10 µM (NCI 60 cancer cell lines; UACC-62, Melanoma UACC-62, 10 μM): 88.6% | inhibition at 10 µM (NCI 60 cancer cell lines; UACC-257, Melanoma UACC-257, 10 μM): 33.7% | inhibition at 10 µM (NCI 60 cancer cell lines; UO-31, Renal cancer UO-31, 10 μM): 45.2% | IC50 ([1]; Homo sapiens, MOLT-4, MTT): 8.62 ± 0.34 µM | % viability ([1]; MOLT-4, 0.4ug (log conc. -0.41)): 65.87% | % viability ([1]; MOLT-4, 1.6ug (log conc. 0.193), listed as Ws5): 58.42% and 58.419% | % viability ([1]; MOLT-4, 6.3ug (log conc. 0.796), listed as Ws5): 52.84% and 52.844% | % viability ([1]; MOLT-4, 25ug (log conc. 1.398), listed as Ws5): 44.14% and 44.141% | % viability ([1]; MOLT-4, 100ug (log conc. 2)): 35.495% | IC50 ([1]; MTT): 8.02 ± 0.31 µM | % viability ([2]; HOP-92, MTT, 0.4uM, listed as Ws5, 0.4 µM): 71.413% | % viability ([2]; HOP-92, MTT, 1.6uM, listed as Ws5, 1.6 µM): 60.375% | % viability ([2]; HOP-92, MTT, 6.3uM, listed as Ws5, 6.3 µM): 47.848% | % viability ([2]; HOP-92, MTT, 25uM, listed as Ws5, 25 µM): 34.437% | viability at 0.4 µM ([2]; Homo sapiens, HOP-92, HOP-92, MTT, 0.4uM, read-out: % viability): 71.4% | viability at 1.6 µM ([2]; Homo sapiens, HOP-92, HOP-92, MTT, 1.6uM, read-out: % viability): 60.4% | viability at 6.3 µM ([2]; Homo sapiens, HOP-92, HOP-92, MTT, 6.3uM, read-out: % viability): 47.9% | viability at 25 µM ([2]; Homo sapiens, HOP-92, HOP-92, MTT, 25uM, read-out: % viability): 34.4% | viability at 100 µM ([2]; Homo sapiens, HOP-92, HOP-92, MTT, 100uM, read-out: % viability): 26.5% | IC50 ([2]; Homo sapiens, HOP-92, HOP-92, concentration used in RT-PCR, read-out: IC50): 4.98 µM | IC50 ([2]; Homo sapiens, HOP-92, HOP-92, concentration used in apoptosis assay, read-out: Conc IC50): 4.98 µM | IC50 ([2]; Homo sapiens, HOP-92, HOP-92, concentration used in cell cycle analysis, read-out: IC50): 4.98 µM | IC50 ([2]; Homo sapiens, HOP-92, MTT, read-out: Antiproliferative activity IC50 ± SEM, HOP-92): 4.98 ± 0.2 µM | viability at 24 h, 0.4 µM ([3]; WI38, 0.4uM (log conc. -0.41)): 83.2% | viability at 24 h, 1.6 µM ([3]; WI38, 1.6uM (log conc. 0.19)): 70.8% | viability at 24 h, 6.3 µM ([3]; WI38, 6.3uM (log conc. 0.8)): 61% | viability at 24 h, 25 µM ([3]; WI38, 25uM (log conc. 1.4)): 50.4% | viability at 24 h, 100 µM ([3]; WI38, 100uM (log conc. 2)): 42.1% | viability at 0.4 µM ([4]; Homo sapiens, T47D, 0.4uM (log -0.41)): 74% | viability at 6.3 µM ([4]; Homo sapiens, T47D, 6.3uM (log 0.796)): 52.1% | viability at 25 µM ([4]; Homo sapiens, T47D, 25uM (log 1.398)): 42.1% | viability at 100 µM ([4]; Homo sapiens, T47D, 100uM (log 2), MTT absorbance 450 nm): 32.1% | IC50 ([4]; Homo sapiens, T47D, read-out: Antiproliferative activity IC50 ± SEM, T-47D, MTT): 8.02 ± 0.31 µM | % viability ([4]; T47D, 1.6ug (log 0.193)): 61.86% | % viability ([4]; T47D, 25uM (log 1.398), listed as Ws5, 25 µM): 42.072% | IC50 ([4]; read-out: Antiproliferative activity IC50 ± SEM, T-47D, MTT): 8.62 ± 0.34 µM
